Results reported in PubChem BioAssay (NCI).
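Where inhibition never reached the appropriate level, the endpoint shown equals the highest concentration tested. Otherwise, values were interpolated linearly from a five-concentration, 48-hour dose response in 96-well plates. GI50 is the concentration that inhibits growth by half. TGI denotes the concentration required for complete inhibition of growth.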

Columns and labels:
Experiment in all cases: growth of human tumour cells (NCI), 48 h
786-0 renal = test system: 786-0 renal
A498 renal = test system: A498 renal
CAKI-1 renal = test system: CAKI-1 renal
CCRF-CEM leukemia = test system: CCRF-CEM leukemia
DU-145 prostate = test system: DU-145 prostate
EKVX NSCLC = test system: EKVX NSCLC
HCC-2998 colon = test system: HCC-2998 colon
HCT-15 colon = test system: HCT-15 colon
HS 578T breast = test system: HS 578T breast
KM12 colon = test system: KM12 colon
LOX IMVI melanoma = test system: LOX IMVI melanoma
MALME-3M melanoma = test system: MALME-3M melanoma
MCF7 breast = test system: MCF7 breast
MDA-MB-435 = test system: MDA-MB-435
MDA-MB-468 breast = test system: MDA-MB-468 breast
NCI-H522 lung = test system: NCI-H522 lung
OVCAR-3 ovarian = test system: OVCAR-3 ovarian
OVCAR-5 ovarian = test system: OVCAR-5 ovarian
RPMI-8226 leukemia = test system: RPMI-8226 leukemia
RXF 393 renal = test system: RXF 393 renal
SF-268 CNS = test system: SF-268 CNS
SF-295 CNS = test system: SF-295 CNS
SF-539 CNS = test system: SF-539 CNS
SK-MEL-2 melanoma = test system: SK-MEL-2 melanoma
SK-MEL-5 melanoma = test system: SK-MEL-5 melanoma
SK-OV-3 ovarian = test system: SK-OV-3 ovarian
SN12C renal = test system: SN12C renal
SNB-75 CNS = test system: SNB-75 CNS
SR leukemia = test system: SR leukemia
T-47D breast = test system: T-47D breast
TK-10 renal = test system: TK-10 renal
UACC-257 melanoma = test system: UACC-257 melanoma
UACC-62 melanoma = test system: UACC-62 melanoma

`Cn1cc(-c2cc(N)n3nc(-c4c[nH]c5ccc(Br)cc45)cc3n2)c2cccnc21` showed a GI50 (786-0 renal) of 1.57 µM, a TGI (786-0 renal) of 3 µM and a GI50 (A498 renal) of 1.72 µM. For the same compound, the TGI (A498 renal) was 3.63 µM, the GI50 (CAKI-1 renal) was 1.8 µM and the TGI (CAKI-1 renal) was 3.86 µM. It also gave a GI50 (CCRF-CEM leukemia) of 3.84 µM, a TGI (CCRF-CEM leukemia) of over 100 µM and a GI50 (DU-145 prostate) of 1.82 µM. For the same compound, the TGI (DU-145 prostate) was 3.4 µM, the GI50 (EKVX NSCLC) was 2.34 µM and the TGI (EKVX NSCLC) was 6.04 µM. It also gave a GI50 (HCC-2998 colon) of 1.82 µM, a TGI (HCC-2998 colon) of 3.27 µM and a GI50 (HCT-15 colon) of 2.71 µM. It also gave a TGI (HCT-15 colon) of 8.28 µM, a GI50 (HS 578T breast) of 2.32 µM and a TGI (HS 578T breast) of 5.61 µM. The GI50 (KM12 colon) was 1.78 µM, the TGI (KM12 colon) was 3.35 µM and the GI50 (LOX IMVI melanoma) was 1.82 µM. The TGI (LOX IMVI melanoma) was 3.21 µM, the GI50 (MALME-3M melanoma) was 1.52 µM and the TGI (MALME-3M melanoma) was 2.91 µM. It also gave a GI50 (MCF7 breast) of 3.01 µM, a TGI (MCF7 breast) of over 100 µM and a GI50 (MDA-MB-435) of 1.7 µM. The TGI (MDA-MB-435) was 3.16 µM, the GI50 (MDA-MB-468 breast) was 1.59 µM and the TGI (MDA-MB-468 breast) was 3.24 µM. It also gave a GI50 (NCI-H522 lung) of 1.85 µM, a TGI (NCI-H522 lung) of 3.54 µM and a GI50 (OVCAR-3 ovarian) of 1.67 µM. It also gave a TGI (OVCAR-3 ovarian) of 3.12 µM, a GI50 (OVCAR-5 ovarian) of 1.41 µM and a TGI (OVCAR-5 ovarian) of 3.24 µM. For the same compound, the GI50 (RPMI-8226 leukemia) was 4.04 µM, the TGI (RPMI-8226 leukemia) was over 100 µM and the GI50 (RXF 393 renal) was 1.65 µM. It also gave a TGI (RXF 393 renal) of 3.24 µM, a GI50 (SF-268 CNS) of 2.03 µM and a TGI (SF-268 CNS) of 4.71 µM. The GI50 (SF-295 CNS) was 2.2 µM, the TGI (SF-295 CNS) was 5.09 µM and the GI50 (SF-539 CNS) was 1.58 µM. For the same compound, the TGI (SF-539 CNS) was 2.97 µM, the GI50 (SK-MEL-2 melanoma) was 17.2 µM and the TGI (SK-MEL-2 melanoma) was 40 µM. For the same compound, the GI50 (SK-MEL-5 melanoma) was 1.75 µM, the TGI (SK-MEL-5 melanoma) was 3.28 µM and the GI50 (SK-OV-3 ovarian) was 22.8 µM. The TGI (SK-OV-3 ovarian) was 44.4 µM, the GI50 (SN12C renal) was 1.82 µM and the TGI (SN12C renal) was 3.72 µM. It also gave a GI50 (SNB-75 CNS) of 1.29 µM, a TGI (SNB-75 CNS) of 2.57 µM and a GI50 (SR leukemia) of 2.72 µM. It also gave a TGI (SR leukemia) of over 100 µM, a GI50 (T-47D breast) of 2.03 µM and a TGI (T-47D breast) of 5.07 µM. For the same compound, the GI50 (TK-10 renal) was 2.11 µM, the TGI (TK-10 renal) was 7.4 µM and the GI50 (UACC-257 melanoma) was 1.75 µM. For the same compound, the TGI (UACC-257 melanoma) was 3.48 µM, the GI50 (UACC-62 melanoma) was 1.73 µM and the TGI (UACC-62 melanoma) was 3.17 µM.
